Experimental data from PubChem BioAssay AID256 (DTP/NCI, 2004).
“And” between values parts separate entries of the source, which are not always exact repeats. Equal entries are not always repeated. Inconclusive results and toxic doses are left out.

Tested on: CD2F1 mice, L1210 leukemia ip, survival T/C
Test: NCI In Vivo Anticancer Drug Screen. Data for tumor model L1210 Leukemia (intraperitoneal) in CD2F1 (CDF1) mice
Conditions: higher = longer survival
Method in brief: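 Implant tumor; dose compound or vehicle; measure endpoint in both groups; report treated divided by control.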

[1] = endpoint: mean survival time, dose: 100.0 mg/kg/injection, schedule: Q01DX009 (ip), vehicle: saline with Tween-80
[2] = endpoint: mean survival time, dose: 200.0 mg/kg/injection, schedule: Q01DX009 (ip), vehicle: saline with Tween-80
[3] = endpoint: mean survival time, dose: 400.0 mg/kg/injection, schedule: Q01DX009 (ip), vehicle: saline with Tween-80
[4] = endpoint: mean survival time, dose: 100.0 mg/kg/injection, schedule: Q01DX001 (ip), vehicle: other
[5] = endpoint: mean survival time, dose: 200.0 mg/kg/injection, schedule: Q01DX001 (ip), vehicle: other
[6] = endpoint: mean survival time, dose: 100.0 mg/kg/injection, schedule: Q01DX001 (ip), vehicle: Klucel (hydroxypropylcellulose) (HPC)
[7] = endpoint: mean survival time, dose: 100.0 mg/kg/injection, schedule: Q04DX003 (ip), vehicle: saline
[8] = endpoint: mean survival time, dose: 100.0 mg/kg/injection, schedule: Q01DX001 (ip), vehicle: saline with Tween-80
[9] = endpoint: mean survival time, dose: 100.0 mg/kg/injection, schedule: Q04DX003 (ip), vehicle: saline with Tween-80
[10] = endpoint: mean survival time, dose: 200.0 mg/kg/injection, schedule: Q04DX003 (ip), vehicle: saline with Tween-80
[11] = endpoint: mean survival time, dose: 400.0 mg/kg/injection, schedule: Q04DX003 (ip), vehicle: saline with Tween-80
[12] = endpoint: mean survival time, dose: 100.0 mg/kg/injection, schedule: Q01DX001 (ip), vehicle: saline
[13] = endpoint: mean survival time, dose: 200.0 mg/kg/injection, schedule: Q01DX001 (ip), vehicle: saline
[14] = endpoint: mean survival time, dose: 400.0 mg/kg/injection, schedule: Q01DX001 (ip), vehicle: saline

SMILES: CS(C)=O.O=C([O-])CC(=O)[O-].[NH-]CC(O)CN(Cc1ccccc1)CC(O)CN.[Pt+4] (stereo not given)
- T/C (endpoint: median survival time, dose: 10.0 mg/kg/injection, schedule: Q04DX003 (ip), vehicle: water): 107 % of control
- T/C (endpoint: median survival time, dose: 20.0 mg/kg/injection, schedule: Q04DX003 (ip), vehicle: water): 104 % of control
- T/C (endpoint: median survival time, dose: 40.0 mg/kg/injection, schedule: Q04DX003 (ip), vehicle: water): 104 % of control
- T/C (endpoint: median survival time, dose: 50.0 mg/kg/injection, schedule: Q04DX003 (ip), vehicle: water): 100 % of control
- T/C (endpoint: median survival time, dose: 80.0 mg/kg/injection, schedule: Q04DX003 (ip), vehicle: water): 108 % of control
- T/C (endpoint: median survival time, dose: 100.0 mg/kg/injection, schedule: Q04DX003 (ip), vehicle: water): 104 % of control
- T/C (endpoint: median survival time, dose: 200.0 mg/kg/injection, schedule: Q04DX003 (ip), vehicle: water): 117 % of control and 110 % of control
- T/C (endpoint: median survival time, dose: 400.0 mg/kg/injection, schedule: Q04DX003 (ip), vehicle: water): 114 % of control

SMILES: CCOC(=O)C1=C(C)NC(C)=C(C(=O)OCC)C1c1ccc(Cl)cc1
- T/C [1]: 96 % of control
- T/C [2]: 100 % of control
- T/C [3]: 96 % of control

SMILES: COc1ccc(OC)c(C=C(C(C)=O)C(C)=O)c1
- T/C (endpoint: mean survival time, dose: 12.5 mg/kg/injection, schedule: Q01DX009 (ip), vehicle: water): 95 % of control
- T/C (endpoint: mean survival time, dose: 25.0 mg/kg/injection, schedule: Q01DX009 (ip), vehicle: water): 102 % of control
- T/C (endpoint: mean survival time, dose: 50.0 mg/kg/injection, schedule: Q01DX009 (ip), vehicle: water): 100 % of control
- T/C (endpoint: mean survival time, dose: 100.0 mg/kg/injection, schedule: Q01DX009 (ip), vehicle: water): 95 % of control
- T/C (endpoint: mean survival time, dose: 200.0 mg/kg/injection, schedule: Q01DX009 (ip), vehicle: water): 88 % of control

SMILES: CC(=O)Nc1nc(C)c(CCCOc2ccc([N+](=O)[O-])cc2)c(=O)[nH]1
- T/C (endpoint: mean survival time, dose: 50.0 mg/kg/injection, schedule: Q01DX009 (ip), vehicle: Klucel (hydroxypropylcellulose) (HPC)): 97 % of control
- T/C (endpoint: mean survival time, dose: 100.0 mg/kg/injection, schedule: Q01DX009 (ip), vehicle: Klucel (hydroxypropylcellulose) (HPC)): 90 % of control
- T/C (endpoint: mean survival time, dose: 200.0 mg/kg/injection, schedule: Q01DX009 (ip), vehicle: Klucel (hydroxypropylcellulose) (HPC)): 90 % of control

SMILES: Cc1ccccc1NC(=O)CN(C)C
- T/C [4]: 98 % of control
- T/C [5]: 103 % of control

SMILES: Nc1nc(F)nc2c1ncn2C1CC(O)C(CO)O1 (stereo not given)
- T/C (endpoint: mean survival time, dose: 75.0 mg/kg/injection, schedule: Q01DX001 (ip), vehicle: saline): 105 % of control
- T/C [4]: 113 % of control
- T/C (endpoint: mean survival time, dose: 150.0 mg/kg/injection, schedule: Q01DX001 (ip), vehicle: saline): 109 % of control
- T/C [5]: 110 % of control
- T/C (endpoint: mean survival time, dose: 400.0 mg/kg/injection, schedule: Q01DX001 (ip), vehicle: other): 107 % of control
- T/C (endpoint: median survival time, dose: 25.0 mg/kg/injection, schedule: Q03HX024 (ip), vehicle: saline with Tween-80): 219 % of control
- T/C (endpoint: median survival time, dose: 30.0 mg/kg/injection, schedule: Q03HX024 (ip), vehicle: saline with Tween-80): 234 % of control
- T/C (endpoint: median survival time, dose: 30.0 mg/kg/injection, schedule: Q03HX024 (ip), vehicle: saline): 211 % of control
- T/C (endpoint: median survival time, dose: 35.0 mg/kg/injection, schedule: Q03HX024 (ip), vehicle: saline with Tween-80): 250 % of control
- T/C (endpoint: median survival time, dose: 40.0 mg/kg/injection, schedule: Q03HX024 (ip), vehicle: saline with Tween-80): 158 % of control
- T/C (endpoint: median survival time, dose: 40.0 mg/kg/injection, schedule: Q03HX024 (ip), vehicle: saline): 227 % of control

SMILES: O=C(CC(SCCN1CCOCC1)c1ccccc1)c1ccc([N+](=O)[O-])cc1 (stereo not given)
- T/C [6]: 93 % of control
- T/C (endpoint: mean survival time, dose: 200.0 mg/kg/injection, schedule: Q01DX001 (ip), vehicle: Klucel (hydroxypropylcellulose) (HPC)): 93 % of control

SMILES: OC(c1ccccc1)(c1ccccc1)c1ccncc1
- T/C (endpoint: mean survival time, dose: 12.5 mg/kg/injection, schedule: Q01DX009 (ip), vehicle: saline with Tween-80): 91 % of control
- T/C (endpoint: mean survival time, dose: 25.0 mg/kg/injection, schedule: Q01DX009 (ip), vehicle: saline with Tween-80): 87 % of control
- T/C (endpoint: mean survival time, dose: 50.0 mg/kg/injection, schedule: Q01DX009 (ip), vehicle: saline with Tween-80): 91 % of control

SMILES: CCOC(=O)c1cc(OC(C)=O)c2c(ccc3ccccc32)c1C
- T/C (endpoint: mean survival time, dose: 100.0 mg/kg/injection, schedule: Q04DX003 (ip), vehicle: Klucel (hydroxypropylcellulose) (HPC)): 101 % of control
- T/C (endpoint: mean survival time, dose: 200.0 mg/kg/injection, schedule: Q04DX003 (ip), vehicle: Klucel (hydroxypropylcellulose) (HPC)): 104 % of control
- T/C (endpoint: mean survival time, dose: 400.0 mg/kg/injection, schedule: Q04DX003 (ip), vehicle: Klucel (hydroxypropylcellulose) (HPC)): 97 % of control

SMILES: OC1OCC(Cc2ccc3c(c2)OCO3)C1Cc1ccc2c(c1)OCO2 (stereo not given)
- T/C [7]: 89 % of control
- T/C (endpoint: mean survival time, dose: 200.0 mg/kg/injection, schedule: Q04DX003 (ip), vehicle: saline): 93 % of control
- T/C (endpoint: mean survival time, dose: 400.0 mg/kg/injection, schedule: Q04DX003 (ip), vehicle: saline): 89 % of control

SMILES: NC(=O)CCl
- T/C [7]: 110 % of control

SMILES: OC(c1ccccc1)(c1ccccc1)C1c2ccccc2-c2[nH]c3ccccc3c21 (stereo not given)
- T/C (endpoint: mean survival time, dose: 25.0 mg/kg/injection, schedule: Q01DX001 (ip), vehicle: saline with Tween-80): 96 % of control
- T/C (endpoint: mean survival time, dose: 50.0 mg/kg/injection, schedule: Q01DX001 (ip), vehicle: saline with Tween-80): 93 % of control
- T/C [8]: 89 % of control

SMILES: CCOC(=O)c1c(C)c2c(n1C)CC/C(=C\N1CCN(c3ccccc3)CC1)C2=O
- T/C (endpoint: mean survival time, dose: 100.0 mg/kg/injection, schedule: Q04DX002 (ip), vehicle: saline with Tween-80): 93 % of control
- T/C (endpoint: mean survival time, dose: 200.0 mg/kg/injection, schedule: Q04DX002 (ip), vehicle: saline with Tween-80): 89 % of control
- T/C (endpoint: mean survival time, dose: 400.0 mg/kg/injection, schedule: Q04DX002 (ip), vehicle: saline with Tween-80): 86 % of control

SMILES: Nc1nc(N)c(N=Nc2cccc(S(=O)(=O)O)c2)c(N)n1
- T/C [9]: 107 % of control
- T/C [10]: 101 % of control
- T/C [11]: 101 % of control

SMILES: C(=C\c1cccnc1)/c1ccncc1
- T/C [1]: 97 % of control
- T/C [2]: 95 % of control
- T/C [3]: 106 % of control

SMILES: CCOC(=O)Nc1cc(F)c(F)cc1F
- T/C [1]: 98 % of control
- T/C [2]: 98 % of control

SMILES: C=CCNC(C)=O
- T/C [12]: 103 % of control
- T/C [13]: 97 % of control
- T/C [14]: 103 % of control

SMILES: O=C(O)c1cc(-c2ccc(-c3ccc(-c4cc(C(=O)O)c5cc(Cl)ccc5n4)cc3)cc2)nc2ccc(Cl)cc12
- T/C [1]: 91 % of control
- T/C [2]: 91 % of control
- T/C [3]: 100 % of control

SMILES: Nc1ccc(N2CCNCC2)cc1
- T/C [9]: 104 % of control
- T/C [10]: 101 % of control

SMILES: CC(C)c1ccc(N=Nc2ccc(C(C)C)cc2)cc1
- T/C [12]: 101 % of control
- T/C [13]: 97 % of control
- T/C [14]: 93 % of control

SMILES: CC(=O)NC1C=CC(=O)O1 (stereo not given)
- T/C (endpoint: mean survival time, dose: 18.75 mg/kg/injection, schedule: Q01DX001 (ip), vehicle: saline): 121 % of control
- T/C (endpoint: mean survival time, dose: 37.5 mg/kg/injection, schedule: Q01DX001 (ip), vehicle: saline): 119 % of control

SMILES: NC(=O)c1nnc(-c2ccccn2)[nH]c1=O
- T/C (endpoint: mean survival time, dose: 25.0 mg/kg/injection, schedule: Q01DX001 (ip), vehicle: Klucel (hydroxypropylcellulose) (HPC)): 94 % of control
- T/C (endpoint: mean survival time, dose: 50.0 mg/kg/injection, schedule: Q01DX001 (ip), vehicle: Klucel (hydroxypropylcellulose) (HPC)): 98 % of control
- T/C [6]: 98 % of control

SMILES: CC(O)c1ccc[n+](CCc2cn(C)c3ccccc23)c1 (stereo not given)
- T/C (endpoint: mean survival time, dose: 6.25 mg/kg/injection, schedule: Q01DX009 (ip), vehicle: saline): 97 % of control
- T/C (endpoint: mean survival time, dose: 6.25 mg/kg/injection, schedule: Q04DX003 (ip), vehicle: saline): 94 % of control
- T/C (endpoint: mean survival time, dose: 12.5 mg/kg/injection, schedule: Q01DX009 (ip), vehicle: saline): 96 % of control
- T/C (endpoint: mean survival time, dose: 12.5 mg/kg/injection, schedule: Q04DX003 (ip), vehicle: saline): 92 % of control
- T/C (endpoint: mean survival time, dose: 25.0 mg/kg/injection, schedule: Q01DX009 (ip), vehicle: saline): 105 % of control
- T/C (endpoint: mean survival time, dose: 25.0 mg/kg/injection, schedule: Q04DX003 (ip), vehicle: saline): 92 % of control

SMILES: O=C(COc1ccc(Cl)c(Cl)c1)NCCc1cc[n+](Cc2ccc(Cl)cc2S(=O)(=O)F)cc1
- T/C [8]: 89 % of control
- T/C (endpoint: mean survival time, dose: 200.0 mg/kg/injection, schedule: Q01DX001 (ip), vehicle: saline with Tween-80): 89 % of control

SMILES: NC(=O)c1cn(C2OC(CO)C(O)C2O)nc1N (stereo not given)
- T/C (endpoint: mean survival time, dose: 100.0 mg/kg/injection, schedule: Q01DX005 (ip), vehicle: saline): 100 % of control
- T/C (endpoint: mean survival time, dose: 200.0 mg/kg/injection, schedule: Q01DX005 (ip), vehicle: saline): 105 % of control

SMILES: O=S(=O)(Nc1ccc(O)c(Cl)c1)c1ccccc1
- T/C [9]: 98 % of control
- T/C [10]: 97 % of control
- T/C [11]: 110 % of control

SMILES: NC(C1SCCS1)C(O)C(O)C(O)CO (stereo not given)
- T/C [9]: 101 % of control
- T/C [10]: 104 % of control
- T/C [11]: 98 % of control
